Among the data in patent publication US11802111B2, “Cyclobutyl amide monoacylglycerol lipase modulators” (Janssen Pharmaceutica NV, priority 2020, dated 2023) are IC50 values, retold here.

One may read the pIC50 as the IC50 on a negative log10 scale, so that one unit is a factor of ten. A high value points to a small IC50.

SMILES strings stand for the structures. pIC50: −log10 of the molar value.

This experiment deals with human MGL from HeLa cells (Homo sapiens (Human), UniProt Q99685). Description: MGL in vitro activity assay ([glycerol-1,3-3H]-oleoyl glycerol hydrolysis, activated carbon filtration). The format is biochemical. To be noted: 300 nM [Glycerol-1,3-3H]-oleoyl glycerol, one hour. In outline: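 Endogenous human MGL in HeLa cells/homogenates incubated 1 h with test compounds and 300 nM [glycerol-1,3-3H]-oleoyl glycerol. Released 3H-glycerol passing an activated carbon filter counted as activity; screening at 10 μM compound, top IC50 concentration set empirically.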
Chain of human MGL from HeLa cells (Q99685 whole entry): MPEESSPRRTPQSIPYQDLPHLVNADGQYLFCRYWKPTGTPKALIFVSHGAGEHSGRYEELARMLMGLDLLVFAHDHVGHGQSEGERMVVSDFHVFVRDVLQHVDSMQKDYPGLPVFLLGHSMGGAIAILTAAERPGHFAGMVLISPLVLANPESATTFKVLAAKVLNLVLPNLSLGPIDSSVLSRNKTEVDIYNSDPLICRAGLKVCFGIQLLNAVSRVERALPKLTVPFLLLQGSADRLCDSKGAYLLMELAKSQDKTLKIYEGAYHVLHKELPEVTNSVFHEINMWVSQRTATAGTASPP
In turn, `C[C@]1(O)C[C@@H](C(=O)N2CC3(CCC(Cc4ccc(OC(F)F)cc4)CC3)C2)C1` [Example 161, (7-(4-(Difluoromethoxy)benzyl)-2-azaspiro[3.5]nonan-2-yl)((1s,3s)-3-hydroxy-3-methylcyclobutyl)methanone] had a pIC50 of 7.72.
With `C[C@]1(O)C[C@@H](C(=O)N2CC3(CCC(Cc4ccc(C(F)F)cc4)CC3)C2)C1` [Example 162, (7-(4-(Difluoromethyl)benzyl)-2-azaspiro[3.5]nonan-2-yl)((1s,3s)-3-hydroxy-3-methylcyclobutyl)methanone] the figure was 7.54; with `C[C@]1(O)C[C@@H](C(=O)N2CC3(CCC(Cc4cccc(C(F)F)c4)CC3)C2)C1` [Example 163, (7-(3-(Difluoromethyl)benzyl)-2-azaspiro[3.5]nonan-2-yl)((1s,3s)-3-hydroxy-3-methylcyclobutyl)methanone], 7.21; with `C[C@]1(O)C[C@@H](C(=O)N2CC3(CC(Cc4ccccc4)C3)C2)C1` [Example 164, (6-Benzyl-2-azaspiro[3.3]heptan-2-yl)((1s,3s)-3-hydroxy-3-methylcyclobutyl)methanone], 7.28.
To `Cc1cccc(CC2CC3(C2)CN(C(=O)[C@H]2C[C@@](C)(O)C2)C3)c1` [Example 165, ((1s,3s)-3-Hydroxy-3-methylcyclobutyl)(6-(3-methylbenzyl)-2-azaspiro[3.3]heptan-2-yl)methanone] belongs 7.68; to `Cc1ccc(CC2CC3(C2)CN(C(=O)[C@H]2C[C@@](C)(O)C2)C3)cc1` [Example 166, ((1s,3s)-3-Hydroxy-3-methylcyclobutyl)(6-(4-methylbenzyl)-2-azaspiro[3.3]heptan-2-yl)methanone], 7.85.
With `C[C@]1(O)C[C@@H](C(=O)N2CC3(CC(Cc4ccccn4)C3)C2)C1` [Example 167, ((1s,3s)-3-Hydroxy-3-methylcyclobutyl)(6-(pyridin-2-ylmethyl)-2-azaspiro[3.3]heptan-2-yl)methanone] the figure was 5.86; with `C[C@]1(O)C[C@@H](C(=O)N2CC3(CC(Cc4cccnc4)C3)C2)C1` [Example 168, ((1s,3s)-3-Hydroxy-3-methylcyclobutyl)(6-(pyridin-3-ylmethyl)-2-azaspiro[3.3]heptan-2-yl)methanone], 5.86; with `C[C@]1(O)C[C@@H](C(=O)N2CCC3(CC2)CC(Cc2ccccc2)C3)C1` [Example 172, (2-Benzyl-7-azaspiro[3.5]nonan-7-yl)((1s,3s)-3-hydroxy-3-methylcyclobutyl)methanone], 7.13.
Compound `Cc1ccc(CC2CC3(CCN(C(=O)[C@H]4C[C@@](C)(O)C4)CC3)C2)cc1` [Example 173, ((1s,3s)-3-Hydroxy-3-methylcyclobutyl)(2-(4-methylbenzyl)-7-azaspiro[3.5]nonan-7-yl)methanone] had a pIC50 of 7.55.
With `Cc1ccccc1CC1CC2(C1)CN(C(=O)[C@H]1C[C@@](C)(O)C1)C2` [Example 184, ((1s,3s)-3-Hydroxy-3-methylcyclobutyl)(6-(2-methylbenzyl)-2-azaspiro[3.3]heptan-2-yl)methanone] the figure was 7.85; with `CC(C)c1ccc(CC2CC3(C2)CN(C(=O)[C@H]2C[C@@](C)(O)C2)C3)cc1` [Example 185, ((1s,3s)-3-Hydroxy-3-methylcyclobutyl)(6-(4-isopropylbenzyl)-2-azaspiro[3.3]heptan-2-yl)methanone], 8.64; with `CC(C)c1cccc(CC2CC3(C2)CN(C(=O)[C@H]2C[C@@](C)(O)C2)C3)c1` [Example 186, ((1s,3s)-3-Hydroxy-3-methylcyclobutyl)(6-(3-isopropylbenzyl)-2-azaspiro[3.3]heptan-2-yl)methanone], 8.33.
`CC(C)c1ccccc1CC1CC2(C1)CN(C(=O)[C@H]1C[C@@](C)(O)C1)C2` [Example 187, ((1s,3s)-3-Hydroxy-3-methylcyclobutyl)(6-(2-isopropylbenzyl)-2-azaspiro[3.3]heptan-2-yl)methanone] gave a pIC50 of 7.92.
With `Cc1ccc(CC2CC3(C2)CN(C(=O)[C@H]2C[C@@](C)(O)C2)C3)cc1C` [Example 188, (6-(3,4-Dimethylbenzyl)-2-azaspiro[3.3]heptan-2-yl)((1s,3s)-3-hydroxy-3-methylcyclobutyl)methanone] the figure was 8.37; with `Cc1ccc(CC2CC3(C2)CN(C(=O)[C@H]2C[C@@](C)(O)C2)C3)cc1C(F)(F)F` [Example 189, ((1s,3s)-3-Hydroxy-3-methylcyclobutyl)(6-(4-methyl-3-(trifluoromethyl)benzyl)-2-azaspiro[3.3]heptan-2-yl)methanone], 8.46; with `CC(C)(C)c1ccnc(CC2CC3(C2)CN(C(=O)[C@H]2C[C@@](C)(O)C2)C3)c1` [Example 190, (6-((4-(tert-Butyl)pyridin-2-yl)methyl)-2-azaspiro[3.3]heptan-2-yl)((1s,3s)-3-hydroxy-3-methylcyclobutyl)methanone], 7.14.
To `COc1cccc(CC2CC3(C2)CN(C(=O)[C@H]2C[C@@](C)(O)C2)C3)n1` [Example 191, ((1s,3s)-3-Hydroxy-3-methylcyclobutyl)(6-((6-methoxypyridin-2-yl)methyl)-2-azaspiro[3.3]heptan-2-yl)methanone] belongs 6.80; to `COc1ccc(CC2CC3(C2)CN(C(=O)[C@H]2C[C@@](C)(O)C2)C3)cc1` [Example 192, ((1s,3s)-3-Hydroxy-3-methylcyclobutyl)(6-(4-methoxybenzyl)-2-azaspiro[3.3]heptan-2-yl)methanone], 7.66.
With `C[C@]1(O)C[C@@H](C(=O)N2CC3(CC(Cc4cccc(C(F)(F)F)c4)C3)C2)C1` [Example 193, ((1s,3s)-3-Hydroxy-3-methylcyclobutyl)(6-(3-(trifluoromethyl)benzyl)-2-azaspiro[3.3]heptan-2-yl)methanone] the figure was 8.24.
Compound `C[C@]1(O)C[C@@H](C(=O)N2CC3(CC(Cc4cccc(OC(F)(F)F)c4)C3)C2)C1` [Example 194, ((1s,3s)-3-Hydroxy-3-methylcyclobutyl)(6-(3-(trifluoromethoxy)benzyl)-2-azaspiro[3.3]heptan-2-yl)methanone] showed a pIC50 of 8.31. The pIC50 values of the last two compounds are within 0.2 log units of each other.
`C[C@]1(O)C[C@@H](C(=O)N2CC3(CC(Cc4ccc(C(F)(F)F)cc4)C3)C2)C1` [Example 195, ((1s,3s)-3-Hydroxy-3-methylcyclobutyl)(6-(4-(trifluoromethyl)benzyl)-2-azaspiro[3.3]heptan-2-yl)methanone] showed a pIC50 of 8.38.
With `C[C@]1(O)C[C@@H](C(=O)N2CC3(CC(Cc4ccccc4OC(F)(F)F)C3)C2)C1` [Example 196, ((1s,3s)-3-Hydroxy-3-methylcyclobutyl)(6-(2-(trifluoromethoxy)benzyl)-2-azaspiro[3.3]heptan-2-yl)methanone] the figure was 8.55; with `COc1cccc(CC2CC3(C2)CN(C(=O)[C@H]2C[C@@](C)(O)C2)C3)c1` [Example 197, ((1s,3s)-3-Hydroxy-3-methylcyclobutyl)(6-(3-methoxybenzyl)-2-azaspiro[3.3]heptan-2-yl)methanone], 7.19; with `C[C@]1(O)C[C@@H](C(=O)N2CC3(CC(Cc4ccc5ccccc5n4)C3)C2)C1` [Example 198, ((1s,3s)-3-Hydroxy-3-methylcyclobutyl)(6-(quinolin-2-ylmethyl)-2-azaspiro[3.3]heptan-2-yl)methanone], 7.25.
With `C[C@]1(O)C[C@@H](C(=O)N2CC3(CC(Cc4ccccc4C(F)(F)F)C3)C2)C1` [Example 199, ((1s,3s)-3-Hydroxy-3-methylcyclobutyl)(6-(2-(trifluoromethyl)benzyl)-2-azaspiro[3.3]heptan-2-yl)methanone] the figure was 8.39; with `Cc1cc(CC2CC3(C2)CN(C(=O)[C@H]2C[C@@](C)(O)C2)C3)ccc1C1CC1` [Example 202, (6-(4-Cyclopropyl-3-methylbenzyl)-2-azaspiro[3.3]heptan-2-yl)((1s,3s)-3-hydroxy-3-methylcyclobutyl)methanone], 9.22; with `C[C@]1(O)C[C@@H](C(=O)N2CC3(CC(Cc4ccncc4)C3)C2)C1` [Example 206, ((1s,3s)-3-Hydroxy-3-methylcyclobutyl)(6-(pyridin-4-ylmethyl)-2-azaspiro[3.3]heptan-2-yl)methanone], 5.94.
To `Cc1cccc(CC2CC3(C2)CN(C(=O)[C@H]2C[C@@](C)(O)C2)C3)c1C1CC1` [Example 207, (6-(2-Cyclopropyl-3-methylbenzyl)-2-azaspiro[3.3]heptan-2-yl)((1s,3s)-3-hydroxy-3-methylcyclobutyl)methanone] belongs 8.77; to `CC(C)(C)c1ccccc1CC1CC2(C1)CN(C(=O)[C@H]1C[C@@](C)(O)C1)C2` [Example 208, (6-(2-(tert-Butyl)benzyl)-2-azaspiro[3.3]heptan-2-yl)((1s,3s)-3-hydroxy-3-methylcyclobutyl)methanone], 8.28; to `Cc1cccc(CC2CC3(C2)CN(C(=O)[C@H]2C[C@@](C)(O)C2)C3)c1C(F)(F)F` [Example 209, ((1s,3s)-3-Hydroxy-3-methylcyclobutyl)(6-(3-methyl-2-(trifluoromethyl)benzyl)-2-azaspiro[3.3]heptan-2-yl)methanone], 8.66.
Regarding `CC(C)c1c(CC2CC3(C2)CN(C(=O)[C@H]2C[C@@](C)(O)C2)C3)cccc1C(F)(F)F` [Example 210, ((1s,3s)-3-Hydroxy-3-methylcyclobutyl)(6-(2-isopropyl-3-(trifluoromethyl)benzyl)-2-azaspiro[3.3]heptan-2-yl)methanone], the pIC50 is 9.10. Compared with the last compound, the pIC50 is 0.44 log units higher.
With `Cc1ccc(C(F)(F)F)c(CC2CC3(C2)CN(C(=O)[C@H]2C[C@@](C)(O)C2)C3)c1` [Example 211, ((1s,3s)-3-Hydroxy-3-methylcyclobutyl)(6-(5-methyl-2-(trifluoromethyl)benzyl)-2-azaspiro[3.3]heptan-2-yl)methanone] the figure was 8.39.
